{"source": "paper PMC3142248", "about": "“The asthma candidate gene NPSR1 mediates isoform specific downstream signalling” (BMC Pulmonary Medicine, 2011)", "molecules": {"B1": {"name": "IFNγ: pro-inflammatory stimulus (protein, UniProt P01579 24-161, looked up)", "Interferon gamma": "QDPYVKEAENLKKYFNAGHSDVADNGTLFLGILKNWKEESDRKIMQSQIVSFYFKLFKNFKDDQSIQKSVETIKEDMNVKFFNSNKKKRDDFEKLTNYSVTDLNVQRKAIHELIQVMAELSPAAKTGKRKRSQMLFRG"}}, "key": {"NPSR1-B [1]": {"target": "T1, NPSR1-B (Homo sapiens, UniProt Q6W5P4, N107I)", "T1 construct": "expressed in transfected cells; host or cells: HEK-293, transient transfection with pCMV-NPSR1-B", "T1 sequence (Q6W5P4 1-377 isoform Q6W5P4-4 N107I)": "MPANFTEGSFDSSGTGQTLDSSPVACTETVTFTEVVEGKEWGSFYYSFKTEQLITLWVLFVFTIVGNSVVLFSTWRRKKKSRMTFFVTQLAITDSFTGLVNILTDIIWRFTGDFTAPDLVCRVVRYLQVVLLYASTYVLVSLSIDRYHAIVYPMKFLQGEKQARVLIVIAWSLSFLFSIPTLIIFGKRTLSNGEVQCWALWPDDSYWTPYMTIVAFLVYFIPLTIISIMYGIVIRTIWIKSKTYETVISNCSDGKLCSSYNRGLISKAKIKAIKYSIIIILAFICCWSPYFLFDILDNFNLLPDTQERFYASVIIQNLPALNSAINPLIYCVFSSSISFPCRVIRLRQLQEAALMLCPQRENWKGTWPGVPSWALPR", "test": "NPS concentration-response, mRNA expression by qRT-PCR, HEK-293 NPSR1-B", "format": "cell-based", "details": "0.001-10 μM NPS, 6 h, Hill fit, mean ± SEM", "protocol": "(§1) Human embryonic kidney cells (HEK-293) were cultured in MEM+GlutaMAX-1 medium (Gibco/Invitrogen) supplemented with 10% fetal calf serum (FCS) (Biosera), 1% sodium pyruvate, 1% non-essential amino acids and 1% penicillin/streptomycin (Gibco/Invitrogen). Human epithelial lung carcinoma cells (A549) were cultured in F-12/D-MEM medium (1:1; Gibco/Invitrogen) supplemented with 10% FCS, L-glutamine and 1% penicillin/streptomycin. Human neuroblastoma cells (SH-SY5Y) were cultured in MEM + GlutaMAX-1 medium supplemented with 10% FCS and 1% penicillin/streptomycin. All cells were kept at 37°C in a humified 5% CO2 incubator. The cells were transiently transfected (Lipofectamin™2000 Reagent, Invitrogen, Carlsbad, USA) with equal amounts of pCMV-NPSR1-A,- NPSR1-B (construction of the expression vectors has been described earlier) or an empty pCMV vector control in a ratio of 1:2 (DNA:Lipofectamin). 24 h post transfection cells were stimulated with NPS ([…]) (Sigma-Genosys LTD, Haverhill, UK or New England Peptide™, Gardner, MA, USA).\n(§2) Total cellular RNA was isolated with the RNAeasy Mini Kit (Qiagen, Hilden, Germany) and reverse transcription was done using the iScript™ cDNA synthesis kit (Bio-Rad Laboratories, Hercules, CA, USA) or SuperScript™ First-Strand Synthesis System (Invitrogen, Carlsbad, USA) according to the manufacturer's protocol. All experiments were performed in biological duplicates or triplicates. qRT-PCR was performed using Fast SYBR® Green technology with hypoxanthine-guanine phosphoribosyl transferase (HPRT) or glyceraldehyde-3-phosphate dehydrogenase (GAPDH) as endogenous controls. Gene-specific primers were designed using Primer3 software (for complete lists of all primer sequences please see Additional file 1, Table S1). The PCR assays were performed in a total volume of 10 μl, containing 2 ul cDNA template, 5 ul Fast SYBR® Green PCR Master Mix (Applied Biosystems, Foster City, CA, USA) and 100 nM of each primer. A 7500 Fast Real-Time PCR system (Applied Biosystems) was used according to manufacturer's instructions. A dissociation stage was added to confirm primer specificity. All assays were carried out in technical duplicates or triplicates. Relative quantification and calculation of the range of confidence was performed with the comparative ΔΔCT method. Results are shown as relative expression compared to NPS stimulated empty vector control cells with error bars illustrating the standard error of the mean (SEM). The levels of total NPSR1 mRNA and isoform specific NPSR1-A and NPSR1-B mRNA were measured with qRT-PCR to control for equal isoform expression levels prior to any experiment on all transiently transfected cells (representative data shown Figure 2b).\n(§3) To refine concentration and time dependency transiently NPSR1-A, -B or empty pCMV vector overexpressing cells were treated either with 0.001, 0.01, 0.1, 1 or 10 μM NPS for 6 h (concentration-response) or with 2 μM NPS for 30 min, 1, 2, 4, 6, 12, 24 or 48 h (time-response). To verify the results in other cell types, A549 and SH-SY5Y transiently overexpressing NPSR1-A, -B or an empty pCMV vector were treated with 2 μM NPS for 6 h. mRNA expression was measured with qRT-PCR. Agonist concentration-effect curve data were fitted to the Hill equation using an iterative, least squares method (GraphPad Prism, San Diego, CA, U.S.A), to provide estimate EC50 (the agonist concentration that induces half-maximum effect) and presented as -log10 (pEC50) which is normally distributed."}, "NPSR1-A [2]": {"target": "T2, NPSR1-A (Homo sapiens, UniProt Q6W5P4, N107I)", "T2 construct": "expressed in transfected cells; host or cells: HEK-293, transient transfection with pCMV-NPSR1-A", "T2 sequence (Q6W5P4 1-371 N107I)": "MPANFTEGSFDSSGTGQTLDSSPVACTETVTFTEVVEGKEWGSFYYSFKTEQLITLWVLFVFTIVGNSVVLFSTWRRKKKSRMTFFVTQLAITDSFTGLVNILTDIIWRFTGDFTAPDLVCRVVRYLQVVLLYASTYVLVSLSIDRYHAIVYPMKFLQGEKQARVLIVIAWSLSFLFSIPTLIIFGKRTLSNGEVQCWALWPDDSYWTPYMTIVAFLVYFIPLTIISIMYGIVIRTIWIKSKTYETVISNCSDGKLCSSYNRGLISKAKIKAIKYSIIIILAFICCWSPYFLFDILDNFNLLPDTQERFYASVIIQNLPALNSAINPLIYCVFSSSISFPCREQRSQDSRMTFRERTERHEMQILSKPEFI", "test": "cAMP accumulation (EIA), HEK-293 NPSR1-A", "format": "cell-based", "details": "0.001-10 μM NPS, 20 min, 200 μM 3-isobutyl-1-methylxanthine 40 min before, six replicas, mean ± SEM", "protocol": "(§4) Human embryonic kidney cells (HEK-293) were cultured in MEM+GlutaMAX-1 medium (Gibco/Invitrogen) supplemented with 10% fetal calf serum (FCS) (Biosera), 1% sodium pyruvate, 1% non-essential amino acids and 1% penicillin/streptomycin (Gibco/Invitrogen). Human epithelial lung carcinoma cells (A549) were cultured in F-12/D-MEM medium (1:1; Gibco/Invitrogen) supplemented with 10% FCS, L-glutamine and 1% penicillin/streptomycin. Human neuroblastoma cells (SH-SY5Y) were cultured in MEM + GlutaMAX-1 medium supplemented with 10% FCS and 1% penicillin/streptomycin. All cells were kept at 37°C in a humified 5% CO2 incubator. The cells were transiently transfected (Lipofectamin™2000 Reagent, Invitrogen, Carlsbad, USA) with equal amounts of pCMV-NPSR1-A,- NPSR1-B (construction of the expression vectors has been described earlier) or an empty pCMV vector control in a ratio of 1:2 (DNA:Lipofectamin). […]\n(§5) To assay cAMP accumulation, transiently NPSR1-A or -B overexpressing HEK-293 cells were 24 h after transfection incubated for 40 min with 200 μM 3-isobutyl-1-methylxanthine (Sigma-Aldrich, St. Louis, MO, USA), a nonspecific inhibitor of phosphodiesterases. […] The fluorescence intensity was measured before and after injection of 1 μM NPS using the Fluostar Optima microplate reader (BMG Labtechnologies, Offenburg, Germany)."}, "NPSR1-B [3]": {"target": "T1, NPSR1-B", "test": "cAMP accumulation (EIA), HEK-293 NPSR1-B", "format": "cell-based", "details": "0.001-10 μM NPS, 20 min, 200 μM 3-isobutyl-1-methylxanthine 40 min before, six replicas, mean ± SEM", "protocol": "as §4, §5"}, "NPSR1-A [4]": {"target": "T2, NPSR1-A", "test": "NPS concentration-response, mRNA expression by qRT-PCR, HEK-293 NPSR1-A", "format": "cell-based", "details": "0.001-10 μM NPS, 6 h, Hill fit, mean ± SEM", "protocol": "as §1, §2, §3"}, "monocytic cell lines": {"tested_on": "monocytic cell lines", "details": "pro-inflammatory stimuli, ref [10]; cited from earlier work", "text": "The increasing number of positive association studies supports the concept that NPSR1 is mechanistically involved in asthma and allergy, and also in other diseases. It is therefore highly important to understand its functions in more detail. […] Furthermore, we have observed that out ..."}, "[5]": {"details": "read-out: pEC50, AREG mRNA (converted)"}, "[6]": {"details": "read-out: pEC50, CGA mRNA (converted)"}, "[7]": {"details": "read-out: pEC50, NR4A2 mRNA (converted)"}, "[8]": {"details": "read-out: pEC50, PCK1 mRNA (converted)"}}, "note": "No end group written: not given here.", "data": [{"molecule": "SFRNGVGTGMKKTSFQRAKS [NPS, neuropeptide S]", "values": [{"measurement": "EC50", "setting": "NPSR1-B [1]; [5]", "value": 170, "unit": "nM"}, {"measurement": "EC50", "setting": "NPSR1-B [1]; read-out: pEC50, CCL20 mRNA (converted)", "value": 100, "unit": "nM"}, {"measurement": "EC50", "setting": "NPSR1-B [1]; [6]", "value": 100, "unit": "nM"}, {"measurement": "EC50", "setting": "NPSR1-B [1]; [7]", "value": 83.2, "unit": "nM"}, {"measurement": "EC50", "setting": "NPSR1-B [1]; [8]", "value": 89.1, "unit": "nM"}, {"measurement": "EC50", "setting": "NPSR1-B [1]; read-out: pEC50, SERPINB2 mRNA (converted)", "value": 126, "unit": "nM"}, {"measurement": "EC50", "setting": "NPSR1-A [2]", "value": 4.47, "unit": "nM"}, {"measurement": "EC50", "setting": "NPSR1-B [3]", "value": 3.89, "unit": "nM"}, {"measurement": "EC50", "setting": "NPSR1-A [4]; [5]", "value": 234, "unit": "nM"}, {"measurement": "EC50", "setting": "NPSR1-A [4]; [6]", "value": 45.7, "unit": "nM"}, {"measurement": "EC50", "setting": "NPSR1-A [4]; read-out: pEC50, EGR1 mRNA (converted)", "value": 72.4, "unit": "nM"}, {"measurement": "EC50", "setting": "NPSR1-A [4]; read-out: pEC50, FOS mRNA (converted)", "value": 53.7, "unit": "nM"}, {"measurement": "EC50", "setting": "NPSR1-A [4]; read-out: pEC50, IL8 mRNA (converted)", "value": 44.7, "unit": "nM"}, {"measurement": "EC50", "setting": "NPSR1-A [4]; [7]", "value": 7.94, "unit": "nM"}, {"measurement": "EC50", "setting": "NPSR1-A [4]; read-out: pEC50, NTS mRNA (converted)", "value": 87.1, "unit": "nM"}, {"measurement": "EC50", "setting": "NPSR1-A [4]; [8]", "value": 162, "unit": "nM"}]}, {"molecule": "TNFα", "values": [{"measurement": "NPSR1 mRNA levels", "setting": "monocytic cell lines", "value": "generated elevated NPSR1 mRNA levels"}]}, {"molecule": "B1", "values": [{"measurement": "NPSR1 mRNA levels", "setting": "monocytic cell lines", "value": "generated elevated NPSR1 mRNA levels"}]}]}
